Data as given in patent US6881427B2, “Topical anti-inflammatory composition containing linseed and licorice extracts” (Alticor Inc., priority 2002, dated 2005).

Tests used:
Format in all cases: cell-based, human
[1] = test system: IL-1α; assay: IL-1α secretion from TESTSKIN II tissue (ELISA); conditions: test materials neat, dexamethasone 100 μM
Description: (§1) The skin tissue used in this study, TESTSKIN II (Organogenesis Inc., Canton, Mass.), is constructed from human skin with anatomical structures and physiological functions that simulate actual living skin. This tissue has an upper epidermal layer with well-differentiated keratinocytes and stratum corneum and a lower dermal layer with living fibroblasts able to produce collagen matrix.
(§2) The test materials were evaluated for exposure periods of 4, 8, and 24 hours, and their toxicity was evaluated for an exposure period of 24 hours. Test materials 2, 4, 6, and 8 were used neat. […] All dilutions were made in growth media, and assays were performed in triplicate.
All supplies and handling equipment are sterilized, and techniques for maintaining sterility are used. Skin tissue is punched out using an 8 mm biopsy punch from the middle section and transferred to a well of a six-well plate containing transwell inserts and 1 mL of growth media. Tissues are transferred to a humidified 37° C. incubator supplied with 10% CO2 and incubated overnight.
Test materials to be used are dosed on a sterile dosing pad (10 μL/pad) and placed on top of tissue. Dosed tissues are returned to the incubator and incubated for a specified amount of time (e.g., 4 hours), after which the supernatants are replaced with fresh media. Collected supernatants are used for PGE2 and GM-CSF assays.
Assays are performed in triplicate, and the numbers shown correspond to averages of the triplicate treatments.
Tissues are pre-incubated with test materials for 4 hours prior to being stimulated by PMA or Histamine. Secreted IL-1α, PGE2 and GM-CSF are measured using the ELISA method.

[2] = test system: TESTSKIN II; assay: MTT reduction toxicity assay on TESTSKIN II skin tissue; conditions: MTT % survival, 24-hour exposure; PMA 10 ng/mL
Description: The release of PGE2 and GM-CSF from skin tissue provides a measure of protective potential following pre-incubation with test materials, whereas the reduction of MTT (3-[4,5-dimethylthiazol-2yl]-2,5-diphenyl-2H-tetrazolium bromide) provides an estimate of toxicity potential.
as §1, §2
All supplies and handling equipment are sterilized, and techniques for maintaining sterility are used. […]
Tissues free of test materials are incubated with 2 mg/mL of MTT solution (made up in growth media) in a humidified 37° C. incubator supplied with 10% CO2 for 2 hours. […] Spent MTT solution is read in a 96 well flat bottom plate at A540. […]

[3] = test system: PGE2; assay: PGE2 secretion from TESTSKIN II tissue (competitive ELISA); conditions: after 24 hours of exposure
Description: The anti-inflammatory potential of a composition according to the present invention that includes a combination of linseed extract and licorice extract was evaluated as described herein. The release of PGE2 and GM-CSF from skin tissue provides a measure of protective potential following pre-incubation with test materials, whereas the reduction of MTT (3-[4,5-dimethylthiazol-2yl]-2,5-diphenyl-2H-tetrazolium bromide) provides an estimate of toxicity potential.
The skin tissue used in this study, TESTSKIN II (Organogenesis Inc., Canton, Mass.), is constructed from human skin with anatomical structures and physiological functions that simulate actual living skin. […]
The test materials were evaluated for exposure periods of 4, 8, and 24 hours, and their toxicity was evaluated for an exposure period of 24 hours. […]
Four controls are included: total activity, non-specific binding, maximum binding, and substrate blank. […] Following incubation, 50 μL of stop solution (trisodium phosphate solution) is added and the optical density is measured immediately at 405 nm (reference wavelength of 570-590 nm) using a microplate spectrophotometer. The amount of PGE2 present in the supernatant is determined by comparison to the calibration curve generated by the recombinant PGE2 standard. […]

Structure (SMILES): C[C@@H]1C[C@H]2[C@@H]3CCC4=CC(=O)C=C[C@]4(C)[C@@]3(F)[C@@H](O)C[C@]2(C)[C@@]1(O)C(=O)CO [Dexamethasone, dexamethasone]
- IL-1α secretion ([1]; 0 Hr, average of triplicate ± SD): 22.00 ± 9.69
- IL-1α secretion ([1]; 8 Hr): 24.45 ± 9.47
- IL-1α secretion ([1]; 24 Hr): 25.42 ± 8.94

Structure (SMILES): CCCCCCCCCCCCCC(=O)O[C@@H]1[C@@H](C)[C@@]2(O)[C@@H](C=C(CO)C[C@]3(O)C(=O)C(C)=C[C@@H]23)[C@@H]2C(C)(C)[C@]12OC(C)=O [PMA, phorbol myristate acetate]
- toxicity to TESTSKIN II tissue, in words [2]: mildly toxic
- induction of PGE2 secretion by stimulus, in words [3]: fails to induce PGE2 secretion above the background level
